{"source": "patent US20230381139A1", "about": "“METHODS OF TREATING AND/OR PREVENTING ALZHEIMER’S DISEASE WITH R-CARVEDILOL” (priority 2020, published 2023)", "key": {"3×TG+/− mice": {"system": "3×TG+/− mice", "test": "Learning and memory tests (Morris water maze, novel object recognition) in 3×TG+/− mice", "type": "in vivo, mouse", "details": "12-15 months old 3×TG+/− mice, 3.2 mg/kg/day for one month; vs DMSO", "protocol": "Genetically engineered mice of 12-15 months old, 3×TG+/− (Oddo et al., 2003), RyR2-E4872Q+/− (EQ+/−)(Chen et al., 2014), 3×TG+/−/RyR2-E48720+/− (3×TG+/−/EQ+/−), and WT littermates of both sexes were used. Sex differences, which may produce biological variables, were not investigated in this study. R-carvedilol (R-CV) (3.2 mg/kg/day) and vehicle control (DMSO) were delivered to 3×TG+/− mice in drinking water for one month. As shown previously, only heterozygous RyR2-E4872Q+/− mutant mice were produced as homozygous E4872Q+/+mutation is embryonic lethal (Chen et al., 2014). Functional RyR2s are tetrameric channels formed by 4 RyR2 monomers. The heterozygous E4872Q+/− mutant mice (harboring one WT allele and one E4872Q mutant allele) will produce a mixture of homo- and hetero-tetrameric channels that contain the WT, E48720 mutant, or both WT/E4872Q mutant monomers. Thus, the RyR2-E4872Q mutation can exert its negative impact not only on the function of the E4872Q homo-tetramers, but also on the function of the WT monomer in the WT/E4872Q hetero-tetrameric channels.\nThe learning and memory of mice with all genotypes were evaluated using the Morris water maze (MWM) test, the Barnes maze (BM) test, and/or the novel object recognition (NOR) test. Experiments were carried out blindly. For the MWM test, mice at different ages were trained to localize a hidden escape platform (10×10 cm) in a circular pool (116.84 cm in diameter, 50 cm in depth) (San Diego Instruments, CA) via distal visual cue. The platform was submerged 1-2 cm beneath the surface in water (22-24°C.), which was rendered opaque by addition of milk powder. The localization of the pool in relation to visual cues was maintained constantly during the entire task. The cues were distinct in color and shape. Digital division of the tracking area (pool) into four quadrants was performed by the SMART video tracking system, Smart 3.0 (Panlab Harvard Apparatus; Barcelona Spain). The escape platform was placed in the centre of the south-west quadrant for the entirety of the learning phase (4 training days) and digitally defined as target. Spatial training consisted of 4 days with 5 trials per mouse per day. Mice were released with their heads facing the pool wall at one of four entry locations (north, east, south and west) in a non-repetitive random order. Swimming was automatically video-tracked until the subject found the escape platform and remained on it (≥5 sec), or until a maximum of 60 seconds. […] In between trials (inter-trial interval ≥10 min), mice were housed in heated cages to avoid performance deficits due to exhaustion or hypothermia. The latency and swimming speed to reach the escape platform were recorded for comparison. After the learning phase, memory retention was evaluated by one probe trial 24 hours after the last training session. The escape platform was removed before mice were released from the north entry point into the pool. Their swimming was video-tracked for 60 seconds. […] The percentage of time mice spent in the target quadrant (including the target) were measured for comparison.\nFor the NOR test, mice were habituated for 10 min per mouse in an equally illuminated, odor-free, white, plastic box (40×40×50 cm^3) embedded with fresh aspen shavings and shreds. […] Mice were video recorded during this familiarizing phase. Side preferences was evaluated by dividing the time a mouse spent exploring one object by the time they spent at the other object. […]"}, "[1]": {"system": "hippocampal CA3-CA1 pathway of 5×FAD+/− mice", "test": "Long-term potentiation / fEPSP recording in hippocampal slices from treated 5×FAD+/− mice", "type": "in vivo, mouse", "details": "vs DMSO", "protocol": "Adult genetically engineered mice, 5×FAD^+/− (Oakley et al., 2006), RyR2-E4872Q^+/− (EQ^+/−) (Chen et al., 2014), 5×FAD^+/−/RyR2-E4872Q^+/− (5×FAD^+/−/EQ^+/−), and wildtype (WT) littermates of both sexes were used. R-carvedilol (R-CV) (at doses of 0.8, 1.6 or 3.2 mg/kg/day), racemic carvedilol (3.2 mg/kg/day), and vehicle control (DMSO) were delivered to 5×FAD^+/− mice in drinking water for one month, starting at different ages before (2-3 months old) or after (3-4 months old) the occurrence of AD pathologies (Oakley et al., 2006). To assess the effects of genetically and pharmacologically limiting RyR2 open time on the prevention and rescue of AD deficits in different stages (early, moderate, and late) of AD progression, animals at different ages (from 2-15 months) were used. […] For 2-photon Ca^2+ imaging experiments, 5×FAD, RyR2 WT, and RyR2 mutant mice were cross-bred with the heterozygous Thy1-GCaMP6f transgenic mice (Chen et al., 2012; Chen et al., 2013) (GP5.17, JAX 025393) to express the GCaMP6f Ca^2+ sensing probe (driven by the Thy1 promotor) in hippocampal neurons in each of the genotypes used.\n(§1) Schaffer collateral fibers were stimulated at the CA3 subfield to record field excitatory postsynaptic potentials (fEPSPs) in the CA1 stratum radiatum of transverse hippocampal slices ([…]) from all genotypes and drug-treated mice at different ages. After recovering at room temperature for 1 h (or 2 h for brain slices from drug-treated mice), hippocampal slices were allowed to recover in the recording chamber for additional 10 min. To evaluate basal synaptic transmission, different stimulation strengths (0 μA to 200 μA in steps of 20 μA) were applied and plotted fEPSP slopes versus the current input to compare the slope of input/output (I/O) curves of fEPSP. In the experiments that followed, stimulus current was adjusted so that fEPSP stabilized at 40-50% of maximum. Baseline was recorded for at least […] until the differences among fEPSP slopes were within 10%. Long-term potentiation (LTP) was induced using a tetanic high-frequency stimulation (HFS; 4 trains of 100 pulses at 100 Hz, with 20-sec intervals). Synaptic responses were recorded for at least 60 min after tetanization and quantified as the slope of the evoked fEPSP as percentage of the baseline."}, "[2]": {"system": "hippocampal CA3-CA1 pathway of 3×TG+/− mice", "test": "Long-term potentiation recording in hippocampal slices from treated 3×TG+/− mice", "type": "in vivo, mouse", "details": "brain slices from 12-15 months old 3×TG+/− mice, 3.2 mg/kg/day for one month; vs DMSO", "protocol": "as §1"}, "[3]": {"system": "RyR2-mediated Ca2+ release", "test": "Ex vivo two-photon Ca2+ imaging of caffeine-induced Ca2+ release in CA1 neurons of brain slices from treated 5×FAD+/− mice", "set-up": "species or system mouse", "details": "CA1 pyramidal neurons in brain slices of 4-5 months old 5×FAD+/− mice treated for 1 month; caffeine 40 mM; vs DMSO-treated"}}}
{"smiles": "COc1ccccc1OCCNC[C@@H](O)COc1cccc2[nH]c3ccccc3c12", "note": "[R-carvedilol, R-(+)-carvedilol]", "values": [{"measurement": "discrimination index in the NOR test", "setting": "3×TG+/− mice", "value": "increased"}, {"measurement": "latency to the target platform in the MWM test", "setting": "3×TG+/− mice", "value": "significantly shortened"}, {"measurement": "swimming speed in the MWM test", "setting": "3×TG+/− mice", "value": "increased"}, {"measurement": "time spent in the target zone in the MWM test", "setting": "3×TG+/− mice", "value": "increased"}, {"measurement": "walking velocity in the NOR test", "setting": "3×TG+/− mice", "value": "increased"}, {"measurement": "LTP impairment", "setting": "[1]; 3.2 mg/kg/day for one month started at 2-3 months of age (before AD symptoms), slices at 3-4 months", "value": "prevented"}, {"measurement": "LTP impairment", "setting": "[1]; 3.2 mg/kg/day for one month started at 3-4 months of age (after AD symptom), slices at 4-5 months", "value": "rescued"}, {"measurement": "reduced basal synaptic transmission (fEPSP slope vs stimulus intensity)", "setting": "[1]; 5×FAD+/− hippocampal brain slices, 3-4, 4-5 and 6-7 months old treated mice", "value": "restored"}, {"measurement": "LTP deficit", "setting": "[1]; 6-7 months old 5×FAD+/− mice after 1-month treatment with 3.2 mg/kg/day", "value": "rescues"}, {"measurement": "hippocampal LTP (potentiation of fEPSP slope)", "setting": "[2]", "value": "significantly enhanced"}, {"measurement": "Caffeine-induced Ca2+ release", "setting": "[3]", "value": "markedly reduced"}]}
